Read-outs that look alike come from different tables or passages of the source. Non-standard residues stand in square brackets, D forms with d. Residues, ends and D or L forms follow the SMILES beside them. No end group written: not given here. Tyr(3-I) = N[C@@H](Cc1ccc(O)c(I)c1)C(=O)O
What was measured:
Swiss 3T3 cells [1] = assay: DNA synthesis by [^3 H]thymidine incorporation in Swiss 3T3 cells (GRP-induced mitogenesis); type: cell-based, mouse; details: for Ability to inhibit mitogenesis stimulated by GRP (relative potency): substance P antagonists tested at 50 μM
Description: Cell culture procedure (33), assays of DNA synthesis by ^3 H-thymidine incorporation (34) and ^125 I-GRP binding to intact cells (13) were performed as described previously.
FIG. 3. Inhibition of GRP-induced DNA synthesis by [DPro^2 ]spantide (A) and [DPhe^5 ]spantide (D). […] After 40 hours DNA synthesis was estimated by [^3 H]thymidine incorporation into acid-precipitable material. […] Each point represents the mean of duplicate determinations. […] Values are expressed as a percentage of [^3 H]thymidine incorporation obtained in the absence of antagonists (100%=8.6×10^5 cpm per dish). Each point represents the mean of 4 determinations.

Mr 75000-85000 protein = molecular target: T1, Mr 75000-85000 protein (Mus musculus, UniProt P21729); assay: ^125 I-GRP affinity labelling (EGS cross-linking) of the Mr 75000-85000 protein in Swiss 3T3 cells; type: binding
T1 construct: endogenous in cells; host or cells: Swiss 3T3 cells (intact, confluent and quiescent)
Description: After 2.5 h the cells were washed three times at 15° C. with phosphate buffered saline (PBS) and then incubated for 15 min at 15° C. in 1 ml of binding medium, pH 7.4 in the presence of the appropriate cross-linking agent at the concentration indicated. The cross-linking agents (EGS, DSS, DSP and BSCOES) were dissolved in dimethyl sulphoxide immediately prior to use and were added to medium to give a final concentration of dimethylsulphoxide of 1-2%. The cultures were rapidly rinsed twice with PBS at 4° C. and solubilized in 0.1 ml of 2× sample buffer 0.2M Tris-HCl, pH 6.8, 10% (w/v) glycerol, 6% sodium dodecyl sulphate (SDS) (w/v) 4% β-mercaptoethanol (v/v) and 2 mM ethylenediaminetetraacetic acid. Samples were immediately heated at 100° C. for 3- 5 min and analysed by either one or two-dimensional gel electrophoresis.
Slab gel electrophoresis was performed using 7.5% acrylamide in the separating gel and 5% in the stacking gel, and 0.1% SDS (31). After electrophoresis gels were stained, destained and dried down onto paper for autoradiography with Fuji X-ray film (Fuji Photo Film Co. Ltd. Japan). Dried gels were exposed to film for 4-8 days. Two-dimensional gel electrophoresis was performed as described by O'Farrell (32) using isoelectric focusing in the 1st dimension and SDS-polyacrylamide gel electrophoresis (SDS-PAGE) (8% polyacrylamide) in the second dimension. The samples prepared for isoelectric focusing containing 1.4% LKB ampholytes, pH 5-7, plus 0.6% LKD ampholytes, pH,3.5-10, 6M urea, and 2% Nonidet P-40. The Mr 75000-85000 band from autoradiograms was scanned using a Joyce-Loebl double beam densitometer and the areas under specific peaks were measured with a Hewlett-Packard digitizer.
FIG. 4. […] Values are expressed as percentage of the specific binding obtained in the absence of antagonists. […] Each point represents the mean of 3 determinations. […] Specific binding (B) is expressed in pmol/10^6 cells and is shown in a double-reciprocal plot. Each point represents the mean of duplicate determinations. […] After 2 hours, the cultures were washed twice with binding medium then incubated in 1 ml containing 6 mM ethylene glycol bis (succinimidylsuccinate) (EGS) at pH 7.4 for 15 minutes at 15° C. The cultures were then washed twice with cold phosphate-buffered saline and solubilised in 0.1 ml of 2× sample buffer, then immediately heated at 100° C. for 5 minutes and electrophoresed on a 10% polyacrylamide gel.
After the incubation period cultures were treated with […] EGS as described in Materials and Methods. Each value is expressed as a percentage of the level of the Mr 75000-85000 protein obtained with no additions (-). Other experimental details are as described in Materials and Methods.

Swiss 3T3 cells [2] = details: reference (13); cited from earlier work
GRP receptor = molecular target: T2, GRP receptor (Mus musculus, UniProt P21729); details: reference (13); cited from earlier work
T2 construct: endogenous in cells; host or cells: Swiss 3T3 cells (intact, confluent and quiescent)

[3] = ^125 I-GRP 0.5 nM, 15° C., 2.5 h, EGS, each addition at its own concentration

T1 sequence (P21729 whole entry): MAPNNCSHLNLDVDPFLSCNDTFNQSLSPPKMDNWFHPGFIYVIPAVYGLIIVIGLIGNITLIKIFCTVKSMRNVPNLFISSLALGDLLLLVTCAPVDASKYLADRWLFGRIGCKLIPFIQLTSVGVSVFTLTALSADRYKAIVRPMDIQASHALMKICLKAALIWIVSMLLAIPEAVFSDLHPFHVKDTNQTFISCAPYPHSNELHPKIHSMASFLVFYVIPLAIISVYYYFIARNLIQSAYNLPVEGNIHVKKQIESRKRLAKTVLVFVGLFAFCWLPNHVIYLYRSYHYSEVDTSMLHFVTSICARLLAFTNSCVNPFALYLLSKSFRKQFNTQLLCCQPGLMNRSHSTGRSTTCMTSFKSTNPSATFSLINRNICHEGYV
T2 sequence (P21729 whole entry): as above

| Molecule | Mr 75000-85000 protein % of control (Mr 75000-85000 protein; [3]) | also measured |
| --- | --- | --- |
| CC(C)C[C@H](NC(=O)[C@H](CC(C)C)NC(=O)[C@@H](Cc1c[nH]c2ccccc12)NC(=O)[C@H](Cc1ccccc1)NC(=O)[C@@H](Cc1c[nH]c2ccccc12)NC(=O)[C@H](CCC(N)=O)NC(=O)[C@H](CCC(N)=O)NC(=O)[C@@H]1CCCN1C(=O)[C@H](CCCCN)NC(=O)[C@@H]1CCCN1C(=O)[C@H](N)CCCNC(=N)N)C(N)=O [B, DArgProLysProGlnGlnDTrpPheDTrpLeuLeuNH2] (H-[dR]PKPQQ[dW]F[dW]LL-NH2) |  | Antagonist activity against GRP-stimulated mitogenesis (Swiss 3T3 cells [1]; even at 100 μM): no antagonist activity; Ability to inhibit mitogenesis stimulated by GRP (relative potency) (Swiss 3T3 cells [1]): less potent than either A or D |
| CSCC[C@H](NC(=O)[C@H](CC(C)C)NC(=O)[C@H](Cc1cnc[nH]1)NC(=O)CNC(=O)[C@@H](NC(=O)[C@H](C)NC(=O)[C@H](Cc1c[nH]c2ccccc12)NC(=O)[C@H](CCC(N)=O)NC(=O)[C@H](CC(N)=O)NC(=O)CNC(=O)[C@H](CC(C)C)NC(=O)[C@H](CCCN=C(N)N)NC(=O)[C@H](CCC(N)=O)NC(=O)[C@@H]1CCC(=O)N1)C(C)C)C(N)=O [Bombesin] |  | Mr 75000-85000 protein % of control (Mr 75000-85000 protein): 0.5 |
| CSCC[C@H](NC(=O)[C@H](CC(C)C)NC(=O)[C@H](Cc1c[nH]cn1)NC(=O)CNC(=O)[C@@H](NC(=O)[C@H](C)NC(=O)[C@H](Cc1c[nH]c2ccccc12)NC(=O)[C@H](Cc1c[nH]cn1)NC(=O)[C@H](CC(N)=O)NC(=O)CNC(=O)[C@H](CCCNC(=N)N)NC(=O)[C@@H]1CCCN1C(=O)[C@H](Cc1ccc(O)c(I)c1)NC(=O)[C@H](CCSC)NC(=O)[C@H](CCCCN)NC(=O)[C@H](C)NC(=O)[C@H](CC(C)C)NC(=O)[C@@H](NC(=O)[C@@H](NC(=O)CNC(=O)CNC(=O)CNC(=O)[C@@H](NC(=O)[C@H](CO)NC(=O)[C@@H](NC(=O)[C@@H]1CCCN1C(=O)[C@H](C)N)C(C)C)C(C)C)[C@@H](C)O)C(C)C)C(C)C)C(N)=O [^125 I-GRP] (H-APVSVGGGTVLAKM[Tyr(3-I)]PRGNHWAVGHLM-NH2; N-terminus and C-terminus assumed) |  | Kd (Mr 75000-85000 protein; 15° C., 2.5 h, EGS 6 mM, read-out: Kd from double-reciprocal plot of cross-linking of ^125 I-GRP to the Mr 75000-85000 band): 1 nM |
| EGF: epidermal growth factor | 94 % of control |  |
| C[C@H](N)C(=O)NCC(=O)N[C@H]1CSSC[C@@H](C(=O)O)NC(=O)[C@H](CO)NC(=O)[C@H]([C@@H](C)O)NC(=O)[C@H](Cc2ccccc2)NC(=O)[C@H]([C@@H](C)O)NC(=O)[C@H](CCCCN)NC(=O)[C@H](Cc2c[nH]c3ccccc23)NC(=O)[C@H](Cc2ccccc2)NC(=O)[C@H](Cc2ccccc2)NC(=O)[C@H](CC(N)=O)NC(=O)[C@H](CCCCN)NC1=O [Somatostatin] | 97 % of control |  |
| GRP (14-27): the 14-27 amino acid fragment of GRP (MYPRGNHWAVGHLM; ends and bridges not checked; UniProt P07492 37-50, looked up, fragment) | 0.4 % of control |  |
| GRP (1-16): the 1-16 amino acid (amino-terminal) fragment of GRP (VPLPAGGGTVLTKMYP; Gastrin-releasing peptide; UniProt P07492 24-39, looked up, fragment) | 93 % of control | Stimulation of DNA synthesis (Swiss 3T3 cells [2]): nor stimulates DNA synthesis; Inhibition of ^125 I-GRP binding (GRP receptor): neither inhibits ^125 I-GRP binding |
| CSCC[C@H](NC(=O)[C@H](CC(C)C)NC(=O)CNC(=O)[C@H](Cc1ccccc1)NC(=O)[C@H](Cc1ccccc1)NC(=O)[C@H](CCC(N)=O)NC(=O)[C@H](CCC(N)=O)NC(=O)[C@@H]1CCCN1C(=O)[C@H](CCCCN)NC(=O)[C@@H]1CCCN1C(=O)[C@@H](N)CCCNC(=N)N)C(N)=O [Substance P] | 91 % of control |  |
| HArgGlyGlnDTrpPheGlyAsp(OtBu)2 [J] |  | Ability to inhibit mitogenesis stimulated by GRP (relative potency) (Swiss 3T3 cells [1]): less potent than either A or D |
| NC(=O)CC[C@@H]1NC(=O)[C@H](Cc2ccccc2)NC(=O)[C@H](Cc2ccc(O)cc2)NC(=O)[C@@H](N)CSSC[C@@H](C(=O)N2CCC[C@H]2C(=O)N[C@@H](CCCN=C(N)N)C(=O)NCC(N)=O)NC(=O)[C@H](CC(N)=O)NC1=O [Vasopressin] | 94 % of control |  |
| CC(C)C[C@H](NC(=O)[C@H](CC(C)C)NC(=O)[C@@H](Cc1c[nH]c2ccccc12)NC(=O)[C@H](Cc1ccccc1)NC(=O)[C@@H](Cc1c[nH]c2ccccc12)NC(=O)[C@H](CCC(N)=O)NC(=O)[C@H](CCC(N)=O)NC(=O)[C@@H]1CCCN1C(=O)[C@H](CCCCN)NC(=O)[C@H]1CCCN1C(=O)[C@H](N)CCCNC(=N)N)C(N)=O [Antagonist A, D-Arg-D-Pro-Lys-Pro-Gln-Gln-D-Trp-Phe-D-Trp-Leu-Leu-NH2] (H-[dR][dP]KPQQ[dW]F[dW]LL-NH2) | 9.7 % of control |  |

Further lines, with some results ahead:

| Mr 75000-85000 protein % of control (Mr 75000-85000 protein; [3]) | Molecule | also measured |
| --- | --- | --- |
| 2 % of control | Litorin |  |
| 90 % of control | Insulin: mitogen for Swiss 3T3 cells |  |
| 99 % of control | PDGF |  |
| 94 % of control | Substance K: neuropeptide |  |
